# Assay results reported in ChEMBL document CHEMBL5523751, “Discovery of Novel Diaryl-Substituted Fused Heterocycles Targeting Katanin and Tubulin with Potent Antitumor and Antimultidrug Resistance Efficacy” (J Med Chem, 2024).
# Activity calls are given as the source filed them. The rule behind the calls is not given here.
# Columns and labels:
# MDA-MB-231 [1] = assay: Antitumor activity against human MDA-MB-231 cells xenografted in BALB/c nude mouse model assessed as tumor weight reduction at 15 mg/kg, ip measured after 14 days relative to control; assay type: functional; set-up: scale not given: the % may be the effect or the level left; details: time 14 day
# MGC-803 = assay: Antiproliferative activity against human MGC-803 assessed as inhibition of cell growth measured after 48 hrs by MTT assay; assay type: functional, cell-based; details: MGC-803, 48 h
# MCF7 [2] = assay: Antiproliferative activity against katanin knockdown human MCF7 cells assessed as inhibition of cell growth at 0.2 to 25 nM measured after 48 hrs by MTT assay; assay type: functional, cell-based; details: dose 0.2-25 nM
# [3] = Water solubility of the compound at pH 7.4 by HPLC analysis; assay type: physicochemical
# [4] = Toxicity in Balb/C nude mouse xenografted with A549/Taxol assessed as changes in blood routine parameters at 15 mg/kg, ip measured after 14 days by biochemical assay; assay type: organism-based, A549/TR; details: in vivo, 336 h, time 14 day
# A549 = assay: Antiproliferative activity against human A549 assessed as inhibition of cell growth measured after 48 hrs by MTT assay; assay type: functional, cell-based; details: A549, 48 h
# MDA-MB-231 [5] = assay: Antitumor activity against human MDA-MB-231 cells xenografted in BALB/c nude mouse model assessed as tumor weight reduction at 7.5 mg/kg, ip measured after 14 days relative to control; assay type: functional; set-up: scale not given: the % may be the effect or the level left; details: time 14 day
# MDA-MB-231 [6] = assay: Antitumor activity against human MDA-MB-231 cells xenografted in BALB/c nude mouse model assessed as increase in tumor necrosis at 7.5 to 15 mg/kg, ip measured after 14 days by H and E staining based analysis; assay type: functional, organism-based; details: dose 7.5-15 mg/kg, time 14.0 day
# HeLa = assay: Antiproliferative activity against human HeLa assessed as inhibition of cell growth measured after 48 hrs by MTT assay; assay type: functional, cell-based
# [7] = Acute toxicity in ICR mouse assessed as survival rate at 150 mg/kg, ip measured after 14 days relative to control; assay type: organism-based; details: in vivo, time 14 day
# [8] = Antiproliferative activity against human CDDP-resistant A549 cell assessed as inhibition of cell growth measured after 48 hrs by MTT assay; assay type: functional, cell-based
# MCF7 [9] = assay: Induction of apoptosis in human MCF7 cells assessed as necrotic cells at 40 nM measured after 48 hrs by annexin-FITC and propidium iodide staining based flow cytometry analysis (reference value: 0.18%); assay type: functional
# MDA-MB-231 [10] = assay: Downregulation of MMP-9 expression in human MDA-MB-231 cells at 5 to 40 nM by Western blot analysis; assay type: functional, cell-based; details: dose 5-40 nM
# MDA-MB-231 [11] = assay: Antitumor activity against human MDA-MB-231 cells xenografted in BALB/c nude mouse model assessed as inhibition of tumor growth volume administered as IP dose measured after 14 days; assay type: functional; details: dose 7.5-15 mg/kg, time 14.0 day
# [12] = Cmax in mouse at 3 mg/kg, iv measured upto 24 hrs by LC-MS/MS analysis; assay type: ADME, organism-based; details: in vivo
# MDA-MB-231 [13] = assay: Antiproliferative activity against human MDA-MB-231 cells assessed as inhibition of cell growth measured after 48 hrs by MTT assay; assay type: functional, cell-based; details: MDA-MB-231, 48 h
# MCF7 [14] = assay: Inhibition of colony formation in human MCF7 cells at 5 to 10 nM incubated for 48 hrs; assay type: functional, cell-based; details: dose 5-10 nM
# [15] = Toxicity in Balb/C nude mouse assessed as abnormalities in liver at 7.5 to 15 mg/kg, ip measured after 14 days by H and E staining based analysis; assay type: organism-based; details: in vivo, 336 h, dose 7.5-15 mg/kg, time 14 day
# MCF7 [16] = assay: Effect on katanin p60 protein level in katanin knockdown human MCF7 cells measured after 48 to 72 hrs by immunoblot analysis; assay type: functional, cell-based; details: time 48-72 hrs
# MCF7 [17] = assay: Induction of apoptosis in human MCF7 cells assessed as upregulation of p53 protein level by Western blot analysis; assay type: functional, cell-based; details: dose 10-40 nM
# [18] = Resistance index, ratio of IC50 for antiproliferative activity against human CDDP-resistant A549 cell to IC50 for antiproliferative activity against human A549 cells; assay type: functional
# [19] = Acute toxicity in ICR mouse assessed as animal death at 300 mg/kg, ip measured after 2 days; assay type: organism-based; details: in vivo, 48 h, time 2 day
# [20] = Acute toxicity in ICR mouse assessed as survival rate at 300 mg/kg, ip measured after 14 days relative to control; assay type: organism-based; details: in vivo, time 14 day
# DU-145 = assay: Antiproliferative activity against human DU-145 assessed as inhibition of cell growth measured after 48 hrs by MTT assay; assay type: functional, cell-based; details: DU-145, 48 h
# [21] = Toxicity in Balb/C nude mouse assessed as effect on body weight loss at 15 mg/kg, ip measured upto 2 weeks; assay type: organism-based; details: in vivo, 336 h
# [22] = Antiproliferative activity against cisplatin resistant human A2780/CDDP cells assessed as inhibition of cell growth measured after 48 hrs by MTT assay; assay type: functional, cell-based
# [23] = Half life in mouse at 3 mg/kg, iv measured upto 24 hrs by LC-MS/MS analysis; assay type: ADME, organism-based; details: in vivo
# [24] = target: Katanin p60 ATPase-containing subunit A1 (Homo sapiens, UniProt O75449); assay: Induction of thermal stabilization in N-terminal human Katanin p60 (8 to 229 residues) expressed in Escherichia coli Rosetta (DE3) at 10 uM by thermal shift assay
# U-87 MG = assay: Antiproliferative activity against human U-87 MG assessed as inhibition of cell growth measured after 48 hrs by MTT assay; assay type: functional, cell-based, U-87MG ATCC
# [25] = Toxicity in Balb/C nude mouse xenografted with A549/Taxol assessed as effect on heart at 15 mg/kg, ip measured after 14 days by H and E staining based analysis; assay type: organism-based, A549/TR; details: in vivo, 336 h, time 14 day
# [26] = AUC (0 to t) in mouse at 15 mg/kg, po measured upto 24 hrs by LC-MS/MS analysis; assay type: ADME, organism-based; details: in vivo
# [27] = Cmax in mouse at 15 mg/kg, po measured upto 24 hrs by LC-MS/MS analysis; assay type: ADME, organism-based; details: in vivo
# [28] = Oral bioavailability in mouse at 15 mg/kg measured upto 24 hrs by LC-MS/MS analysis; assay type: ADME, organism-based; details: in vivo
# MCF7 [29] = assay: Induction of apoptosis in human MCF7 cells assessed as late apoptotic cells at 20 nM measured after 48 hrs by annexin-FITC and propidium iodide staining based flow cytometry analysis (reference value: 3.93%); assay type: functional
# [30] = Acute toxicity in ICR mouse assessed as animal death at 150 mg/kg, ip measured after 3 to 14 days; assay type: organism-based; details: in vivo, time 3-14 day
# MCF7 [31] = assay: Induction of apoptosis in human MCF7 cells assessed as late apoptotic cells at 10 nM measured after 48 hrs by annexin-FITC and propidium iodide staining based flow cytometry analysis (reference value: 3.93%); assay type: functional
# Sus scrofa = species on record: Sus scrofa; assay: (§1) Inhibition of porcine brain tubulin polymerization; details: dose 0.4-12 µM
# [32] = as §1; set-up: species or system Sus scrofa
# [33] = Stability in mouse plasma assessed as half life at 1 uM measured upto 120 mins by LC-MS/MS analysis; assay type: ADME, cell-free
# [34] = Resistance index, ratio of IC50 for antiproliferative activity against human A549/Taxol cells to IC50 for antiproliferative activity against human A549 cells; assay type: functional
# HUVEC = assay: Anti-angiogenesis activity in human HUVEC cells assessed as disruption of capillary tube formation at 30 nM incubated for 6 hrs by inverted microscopic analysis; assay type: functional, cell-based
# Katanin p60 ATPase-containing subunit A1, sequence (O75449 whole entry, the tested form may be a part): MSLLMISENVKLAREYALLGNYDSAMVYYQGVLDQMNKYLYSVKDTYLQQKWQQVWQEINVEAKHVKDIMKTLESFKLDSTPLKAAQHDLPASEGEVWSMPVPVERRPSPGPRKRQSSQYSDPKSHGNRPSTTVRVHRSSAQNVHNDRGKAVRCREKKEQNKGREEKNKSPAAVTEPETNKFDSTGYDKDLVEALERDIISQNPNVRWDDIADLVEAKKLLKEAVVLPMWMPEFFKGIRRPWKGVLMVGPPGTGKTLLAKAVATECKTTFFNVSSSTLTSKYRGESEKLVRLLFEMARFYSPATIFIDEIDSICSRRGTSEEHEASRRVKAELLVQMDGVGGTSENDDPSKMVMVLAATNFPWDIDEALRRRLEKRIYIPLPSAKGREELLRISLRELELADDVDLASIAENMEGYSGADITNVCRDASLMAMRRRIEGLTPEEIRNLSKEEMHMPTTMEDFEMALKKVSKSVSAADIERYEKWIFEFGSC
structure (smiles),measurement,setting,value
COc1cc(-n2cnc3ccc(-c4ccc(C)c(N)c4)nc32)cc(OC)c1OC,Activity,MDA-MB-231 [1],84%
same,IC50,MGC-803,0.5 nM
same,Activity,MCF7 [2],inactive
same,solubility,[3],30 µg/mL
same,Activity,[4],Toxic
same,IC50,A549,1 nM
same,Activity,MDA-MB-231 [5],63%
same,Activity,MDA-MB-231 [6],Active
same,IC50,HeLa,0.9 nM
same,survival at 336 h,[7],50%
same,IC50,[8],2 nM
same,Activity,MCF7 [9],0.36%
same,Activity,MDA-MB-231 [10],Active
same,Activity,MDA-MB-231 [11],Dose-Dependent Effect
same,Cmax,[12],1650 ng/mL
same,IC50,MDA-MB-231 [13],20 nM
same,inhibition,MCF7 [14],Active
same,Activity,[15],Non-Toxic
same,Activity,MCF7 [16],inactive
same,Activity,MCF7 [17],Dose-Dependent Effect
same,Ratio IC50,[18],1.81
same,Activity,[19],Non-Toxic
same,survival at 336 h,[20],0%
same,IC50,DU-145,4 nM
same,Activity,[21],Non-Toxic
same,IC50,[22],4.2 nM
same,half-life,[23],1.06 h
same,Activity,[24],Active
same,IC50,U-87 MG,15 nM
same,Activity,[25],Non-Toxic
same,AUC(0-t) at 24 h,[26],1240 ng·h/mL
same,Cmax,[27],1200 ng/mL
same,bioavailability,[28],40%
same,Activity,MCF7 [29],21.54%
same,Activity,[30],Non-Toxic
same,Activity,MCF7 [31],16.7%
same,inhibition,Sus scrofa,Dose-Dependent Effect
same,IC50,[32],2000 nM
same,half-life at 1 µM,[33],39 h
same,Ratio IC50,[34],1.45
same,Activity,HUVEC,Active
